Activity calls are given as the source filed them. The rule behind the calls is not given here.
System: not listed separately
Test: Chikungunya virus CPE inhibitors, dose response, cell-based, secondary assay, set 3 (AID 651934)
Conditions: Chikungunya virus infected cells, CPE inhibition; at 0.625 µM (top of the series)
In the case of `COc1ccc(NC(=O)c2cc([N+](=O)[O-])ccc2N=C2CN(C)CCN2C)cc1`, the inhibition is reported as 0.6% (inactive).

Same assay, conditions: Chikungunya virus infected cells, CPE inhibition; at 25 µM (top of the series)
For `CN1CCN(C)C(=Nc2ccc([N+](=O)[O-])cc2C(=O)Nc2ccccc2)C1`, the inhibition was -1.6% (inactive).
In the case of `CCN1CCN(Cc2nc3ccc([N+](=O)[O-])cc3c(=O)n2-c2ccccc2)CC1`, the inhibition is reported as 1.8% (inactive).
In the case of `CCN1CCN(Cc2nc3ccc(S(=O)(=O)O)cc3c(=O)n2-c2ccccc2)CC1`, the inhibition is reported as -0.2% (inactive).
With `CCN1CCN(Cc2nc3ccc(C#N)cc3c(=O)n2-c2ccccc2)CC1` the inhibition was -0.5% (inactive).
With `O=c1nc(NC2CCNCC2)sc2ncccc12` the inhibition was -0.4% (inactive).
In the case of `CCN1CCN(c2nc3ccc([N+](=O)[O-])cc3c(=O)n2-c2ccccc2)CC1`, the inhibition is reported as -1.4% (inactive).
In the case of `Cc1cccc(C)c1Nc1nc(=O)c2cccnc2s1`, the inhibition is reported as -0.7% (inactive).
For `O=c1nc(Nc2ccccc2OCc2ccccc2)sc2ncccc12`, the inhibition was -1% (inactive).
In the case of `CCN1CCN(CC2Nc3ccc([N+](=O)[O-])cc3C(=O)N2c2ccccc2F)CC1` (centres undefined), the inhibition is reported as -0.9% (inactive).
In the case of `O=c1nc(Nc2ccc(OCc3ccccc3)cc2)sc2ncc([N+](=O)[O-])cc12`, the inhibition is reported as -1% (inactive).
For `O=c1nc(Nc2ccc(F)cc2)sc2ncccc12`, the inhibition was 0.9% (inactive).
With `O=c1nc(N2CCN(Cc3ccccc3)CC2)sc2ncccc12` the inhibition was 1.8% (inactive).

Same assay, conditions: Chikungunya virus infected cells, CPE inhibition; at 50 µM (top of the series)
In the case of `O=c1nc(Nc2ccc(CCc3ccccc3)cc2)sc2ncccc12`, the inhibition is reported as 44% (inactive).
For `CN1CCN(C)C(=Nc2cc(Cl)c(C#N)cc2C(=O)Nc2ccccc2)C1`, the inhibition was 2.9% (inactive).
For `COc1ccc(Nc2nc(=O)c3cccnc3s2)cc1`, the inhibition was -5.2% (inactive).
In the case of `O=c1c2cc([N+](=O)[O-])ccc2nc(CN2CCCNCC2)n1-c1ccccc1`, the inhibition is reported as 4.1% (inactive).
For `CCN1CCN(C)CC1=Nc1ccc([N+](=O)[O-])cc1C(=O)Nc1ccccc1`, the inhibition was 1.7% (inactive).
In the case of `CCN1CCN(Cc2nc3ccc(-c4nn[nH]n4)cc3c(=O)n2-c2ccccc2)CC1`, the inhibition is reported as 0.6% (inactive).
In the case of `CN1CCN(C)C(=Nc2ccc(C#N)cc2C(=O)Nc2cccc(F)c2)C1`, the inhibition is reported as 3.5% (inactive).
In the case of `CCN1CCN(Cc2nc3ccc([N+](=O)[O-])cc3c(=O)n2Cc2ccccc2)CC1`, the inhibition is reported as 5.3% (inactive).
With `CNCCN(C)Cc1nc2ccc(C#N)cc2c(=O)n1-c1ccccc1F` the inhibition was 6.3% (inactive).
With `CCN(CC)c1nc(=O)c2cccnc2s1` the inhibition was -5.8% (inactive).
For `CN1CCN(C)C(=Nc2ccc(F)cc2C(=O)Nc2ccccc2)C1`, the inhibition was 2.2% (inactive).
With `CNCCCN(C)Cc1nc2ccc([N+](=O)[O-])cc2c(=O)n1-c1ccccc1` the inhibition was 0.8% (inactive).
With `O=C1CN(Cc2nc3ccc([N+](=O)[O-])cc3c(=O)n2-c2ccccc2F)CCN1` the inhibition was 1.2% (inactive).
In the case of `CCN1CCN(Cc2nc3ccc([N+](=O)[O-])cc3c(=O)n2-c2ccccc2F)CC1`, the inhibition is reported as -3.4% (inactive).

System: Chikungunya virus infected cells, CPE inhibition
Test: as above
Conditions: not given
In the case of `O=c1nc(Nc2ccc(OCc3ccccc3)cc2)sc2ncc(F)cc12`, the IC50 is reported as 3650 nM.
Compound `O=c1nc(Nc2ccc(OCc3ccccc3)cc2)sc2ncccc12` has an IC50 of 1060 nM.
